Experimental data from article PMC5218480 (PLoS ONE, 2017).

Test system: MV-4-11 cells
Test: Gene expression microarray analysis (Affymetrix PrimeView) and GSEA
Format: cell-based, human
Set-up: RFU PODN (11730768_x_at) / Fold change /veh PODN (11730768_x_at) / RFU LINC00158 (11744669_a_at) / Fold change /veh LINC00158 (11744669_a_at) / RFU DUSP10 (11751237_a_at) / Fold change /veh DUSP10 (11751237_a_at) / RFU ID3 (11757404_x_at) / Fold change /veh ID3 (11757404_x_at) / RFU PLEKHG5 (11737974_s_at) / Fold change /veh PLEKHG5 (11737974_s_at) / RFU LRRC4B (11730491_at) / Fold change /veh LRRC4B (11730491_at) / RFU GIMAP4 (11747438_a_at) / Fold change /veh GIMAP4 (11747438_a_at) / RFU KRT8 (11758183_x_at) / Fold change /veh KRT8 (11758183_x_at) / RFU CNN1 (11734310_a_at) / Fold change /veh CNN1 (11734310_a_at) / RFU VPS37D (11726825_at) / Fold change /veh VPS37D (11726825_at) / RFU C10orf10 (11716522_x_at) / Fold change /veh C10orf10 (11716522_x_at) / RFU KIR2DL2 /// KIR2DL4 /// KIR2DL5A /// KIR2DL5B /// KIR2DS1 /// KIR2DS2 /// KIR2DS3 /// KIR2DS4 /// KIR3DL3 /// KIR3DL3 /// KIR3DS1 (11738374_at) / Fold change /veh KIR2DL2 /// KIR2DL4 /// KIR2DL5A /// KIR2DL5B /// KIR2DS1 /// KIR2DS2 /// KIR2DS3 /// KIR2DS4 /// KIR3DL3 /// KIR3DL3 /// KIR3DS1 (11738374_at) / RFU C1QL1 (11718748_at) / Fold change /veh C1QL1 (11718748_at) / RFU TMPRSS4 (11747572_a_at) / Fold change /veh TMPRSS4 (11747572_a_at) / RFU HAMP (11756126_x_at) / Fold change /veh HAMP (11756126_x_at) / RFU RNFT2 (11725882_a_at) / Fold change /veh RNFT2 (11725882_a_at) / RFU NR4A2 (11747474_a_at) / Fold change /veh NR4A2 (11747474_a_at) / RFU ABCC12 (11746883_a_at) / Fold change /veh ABCC12 (11746883_a_at) / RFU TMEM136 (11760407_x_at) / Fold change /veh TMEM136 (11760407_x_at) / RFU CLDN22 /// WWC2 (11732394_at) / Fold change /veh CLDN22 /// WWC2 (11732394_at) / RFU HLA-DPB1 (11760878_x_at) / Fold change /veh HLA-DPB1 (11760878_x_at) / RFU SPINT1 (11716480_a_at) / Fold change /veh SPINT1 (11716480_a_at) / RFU GAP43 (11754022_s_at) / Fold change /veh GAP43 (11754022_s_at) / RFU A4GNT (11735810_at) / Fold change /veh A4GNT (11735810_at) / RFU PRB3 (11715151_x_at) / Fold change /veh PRB3 (11715151_x_at) / RFU TUBB4B (11761932_at) / Fold change /veh TUBB4B (11761932_at) / RFU CAPN14 (11732068_a_at) / Fold change /veh CAPN14 (11732068_a_at) / RFU TMCC2 (11721928_a_at) / Fold change /veh TMCC2 (11721928_a_at) / RFU IRGQ (11745062_a_at) / Fold change /veh IRGQ (11745062_a_at) / RFU FAM174B (11720279_a_at) / Fold change /veh FAM174B (11720279_a_at) / RFU TMPRSS4 (11748680_a_at) / Fold change /veh TMPRSS4 (11748680_a_at) / RFU FAM212B (11763350_a_at) / Fold change /veh FAM212B (11763350_a_at) / RFU PLEKHG5 (11743358_a_at) / Fold change /veh PLEKHG5 (11743358_a_at) / RFU ZSCAN30 (11745921_a_at) / Fold change /veh ZSCAN30 (11745921_a_at) / RFU CMKLR1 (11741424_a_at) / Fold change /veh CMKLR1 (11741424_a_at) / RFU LOC101060620 /// MAPK8IP1 (11723275_at) / Fold change /veh LOC101060620 /// MAPK8IP1 (11723275_at) / RFU SPTSSB (11747773_x_at) / Fold change /veh SPTSSB (11747773_x_at) / RFU PRSS12 (11739890_at) / Fold change /veh PRSS12 (11739890_at) / RFU BIN1 (11741810_x_at) / Fold change /veh BIN1 (11741810_x_at) / RFU WNT11 (11732464_a_at) / Fold change /veh WNT11 (11732464_a_at) / RFU C10orf10 (11716521_a_at) / Fold change /veh C10orf10 (11716521_a_at) / RFU C5orf56 (11738089_at) / Fold change /veh C5orf56 (11738089_at) / RFU CYB561 (11721691_x_at) / Fold change /veh CYB561 (11721691_x_at) / RFU ANKRD19P (11752326_a_at) / Fold change /veh ANKRD19P (11752326_a_at) / RFU OR2T12 /// OR2T33 /// OR2T8 (11738714_s_at) / Fold change /veh OR2T12 /// OR2T33 /// OR2T8 (11738714_s_at) / RFU VCAN (11748164_a_at) / Fold change /veh VCAN (11748164_a_at) / RFU JSRP1 (11732532_at) / Fold change /veh JSRP1 (11732532_at) / RFU KRTAP10-11 (11738290_x_at) / Fold change /veh KRTAP10-11 (11738290_x_at) / RFU MYO3A (11730013_a_at) / Fold change /veh MYO3A (11730013_a_at) / RFU EBF3 (11725865_a_at) / Fold change /veh EBF3 (11725865_a_at) / RFU CAMK2N1 (11719241_x_at) / Fold change /veh CAMK2N1 (11719241_x_at) / RFU C5orf56 (11738088_a_at) / Fold change /veh C5orf56 (11738088_a_at) / RFU OLFML3 (11715873_a_at) / Fold change /veh OLFML3 (11715873_a_at) / RFU LOC100653217 /// NTM (11731650_a_at) / Fold change /veh LOC100653217 /// NTM (11731650_a_at) / RFU MAPK11 (11762145_a_at) / Fold change /veh MAPK11 (11762145_a_at) / RFU FIZ1 (11724087_x_at) / Fold change /veh FIZ1 (11724087_x_at) / RFU OASL (11726364_x_at) / Fold change /veh OASL (11726364_x_at) / RFU SOX15 (11748057_x_at) / Fold change /veh SOX15 (11748057_x_at) / RFU CD79A (11719716_a_at) / Fold change /veh CD79A (11719716_a_at) / RFU HIST1H1D (11736915_at) / Fold change /veh HIST1H1D (11736915_at) / RFU CASKIN2 (11723855_a_at) / Fold change /veh CASKIN2 (11723855_a_at) / RFU LOC730098 (11760151_x_at) / Fold change /veh LOC730098 (11760151_x_at) / RFU OR4N2 (11742367_at) / Fold change /veh OR4N2 (11742367_at) / RFU PRRT2 (11749266_a_at) / Fold change /veh PRRT2 (11749266_a_at) / RFU SNX32 (11753110_a_at) / Fold change /veh SNX32 (11753110_a_at) / RFU CDHR5 (11726645_a_at) / Fold change /veh CDHR5 (11726645_a_at) / RFU RCAN1 (11760418_a_at) / Fold change /veh RCAN1 (11760418_a_at) / RFU FAM167A (11723789_a_at) / Fold change /veh FAM167A (11723789_a_at) / RFU FAM26E (11764081_at) / Fold change /veh FAM26E (11764081_at) / RFU ISYNA1 (11749810_s_at) / Fold change /veh ISYNA1 (11749810_s_at) / RFU ACY1 (11761880_at) / Fold change /veh ACY1 (11761880_at) / RFU 11764098_at / Fold change /veh 11764098_at / RFU SAMD14 (11745864_x_at) / Fold change /veh SAMD14 (11745864_x_at) / RFU NPB (11741838_a_at) / Fold change /veh NPB (11741838_a_at) / RFU TMPRSS6 (11731388_a_at) / Fold change /veh TMPRSS6 (11731388_a_at) / RFU KRTAP10-2 (11738614_at) / Fold change /veh KRTAP10-2 (11738614_at) / RFU ARHGAP8 /// PRR5-ARHGAP8 (11727945_x_at) / Fold change /veh ARHGAP8 /// PRR5-ARHGAP8 (11727945_x_at) / RFU KRTAP5-7 /// NADSYN1 (11734609_at) / Fold change /veh KRTAP5-7 /// NADSYN1 (11734609_at) / RFU RASL12 (11751679_a_at) / Fold change /veh RASL12 (11751679_a_at) / RFU CDKN2B (11736163_a_at) / Fold change /veh CDKN2B (11736163_a_at) / RFU PRF1 (11729649_at) / Fold change /veh PRF1 (11729649_at) / RFU, ZNF638 /// ZNF638-IT1 / Fold change vs veh, ZNF638 /// ZNF638-IT1 / RFU, PANK3 / Fold change vs veh, PANK3 / RFU, SH3YL1 / Fold change vs veh, SH3YL1 / RFU, ZEB2 / Fold change vs veh, ZEB2 / RFU, NRIP1 / Fold change vs veh, NRIP1 / RFU, PTTG1IP / Fold change vs veh, PTTG1IP / RFU, CAPN2 / Fold change vs veh, CAPN2 / RFU, MED14 / Fold change vs veh, MED14 / RFU, SNORA58 / Fold change vs veh, SNORA58 / RFU, C1orf63 / Fold change vs veh, C1orf63 / RFU, LRRFIP1 / Fold change vs veh, LRRFIP1 / RFU, NDUFAF7 / Fold change vs veh, NDUFAF7 / RFU, SLC12A2 / Fold change vs veh, SLC12A2 / RFU, IBTK / Fold change vs veh, IBTK / RFU, ESF1 / Fold change vs veh, ESF1 / Fold change vs veh, TMEM50B / RFU, TAOK1 / Fold change vs veh, TAOK1 / RFU, ACBD3 / Fold change vs veh, ACBD3 / RFU, TMA16 / Fold change vs veh, TMA16 / RFU, RWDD3 / Fold change vs veh, RWDD3 / RFU, BCAT1 / Fold change vs veh, BCAT1 / RFU, EDEM3 / Fold change vs veh, EDEM3 / RFU, TMEM33 / Fold change vs veh, TMEM33 / RFU, WDR75 / Fold change vs veh, WDR75 / RFU, AHCTF1 / Fold change vs veh, AHCTF1 / RFU, TFRC / Fold change vs veh, TFRC / RFU, ZDHHC17 / Fold change vs veh, ZDHHC17 / RFU, NOM1 / Fold change vs veh, NOM1 / RFU, ARL8B / Fold change vs veh, ARL8B / RFU, ZBTB11 / Fold change vs veh, ZBTB11 / RFU, TAMM41 / Fold change vs veh, TAMM41 / RFU, KIAA1704 /// LOC100996395 / Fold change vs veh, KIAA1704 /// LOC100996395 / RFU, ING1 / Fold change vs veh, ING1 / RFU, TRMT61B / Fold change vs veh, TRMT61B / RFU, FUBP3 / Fold change vs veh, FUBP3 / RFU, TP53 / Fold change vs veh, TP53 / RFU, TNKS2 / Fold change vs veh, TNKS2 / RFU, ZFP14 / Fold change vs veh, ZFP14 / RFU, ACTR2 / Fold change vs veh, ACTR2 / RFU, PPP3R1 / Fold change vs veh, PPP3R1 / RFU, PIK3R1 / Fold change vs veh, PIK3R1 / RFU, HNRNPA1 / Fold change vs veh, HNRNPA1 / RFU, RNF170 / Fold change vs veh, RNF170 / RFU, ZNF28 / Fold change vs veh, ZNF28 / RFU, RNGTT / Fold change vs veh, RNGTT / RFU, OGT / Fold change vs veh, OGT / RFU, BRD1 / Fold change vs veh, BRD1 / RFU, MARS / Fold change vs veh, MARS / RFU, ZNF655 / Fold change vs veh, ZNF655 / RFU, FAHD1 / Fold change vs veh, FAHD1 / RFU, BDP1 / Fold change vs veh, BDP1 / RFU, LRRCC1 / Fold change vs veh, LRRCC1 / RFU, ARID1A / Fold change vs veh, ARID1A / RFU, ZNF146 / Fold change vs veh, ZNF146 / RFU, ZNF330 / Fold change vs veh, ZNF330 / RFU, GPN3 / Fold change vs veh, GPN3 / RFU, C9orf123 / Fold change vs veh, C9orf123 / RFU, N4BP2L2 / Fold change vs veh, N4BP2L2 / RFU, ARFIP1 / Fold change vs veh, ARFIP1 / RFU, FAM179B / Fold change vs veh, FAM179B / RFU, BCL10 / Fold change vs veh, BCL10 / RFU, UHRF1BP1L / Fold change vs veh, UHRF1BP1L / RFU, BET1 / Fold change vs veh, BET1 / RFU, CNOT2 / Fold change vs veh, CNOT2 / RFU, ZNF268 / Fold change vs veh, ZNF268 / Fold change vs veh, ZNF507 / RFU, DGCR2 / Fold change vs veh, DGCR2 / RFU, WDSUB1 / Fold change vs veh, WDSUB1 / Fold change vs veh, HSP90B1 /// MIR3652 / RFU, ADSS / Fold change vs veh, ADSS / RFU, GK / Fold change vs veh, GK / RFU, ZNF148 / Fold change vs veh, ZNF148 / RFU, TAF9 / Fold change vs veh, TAF9 / RFU, SLC1A5 / Fold change vs veh, SLC1A5 / RFU, SLMO2 / Fold change vs veh, SLMO2 / RFU, ABCC4 / Fold change vs veh, ABCC4 / RFU, LOC101060439 /// RAP1B / Fold change vs veh, LOC101060439 /// RAP1B / RFU, RFX7 / Fold change vs veh, RFX7 / RFU, GTPBP10 / Fold change vs veh, GTPBP10 / RFU, CNEP1R1 / Fold change vs veh, CNEP1R1 / RFU, BIVM-ERCC5 /// ERCC5 / Fold change vs veh, BIVM-ERCC5 /// ERCC5 / RFU, ILF3 / Fold change vs veh, ILF3 / RFU 11762660_at / Fold change /veh 11762660_at / RFU VCAN (11757783_s_at) / Fold change /veh VCAN (11757783_s_at) / RFU DDX43 (11728927_at) / Fold change /veh DDX43 (11728927_at) / RFU KRT8 (11758188_x_at) / Fold change /veh KRT8 (11758188_x_at) / RFU NKD1 (11759106_at) / Fold change /veh NKD1 (11759106_at) / RFU SRD5A1 (11742802_a_at) / Fold change /veh SRD5A1 (11742802_a_at) / RFU TPSAB1 /// TPSB2 (11721975_s_at) / Fold change /veh TPSAB1 /// TPSB2 (11721975_s_at) / RFU GSTM3 (11746129_a_at) / Fold change /veh GSTM3 (11746129_a_at) / RFU IL23R (11737362_x_at) / Fold change /veh IL23R (11737362_x_at) / RFU TMEM51 (11727254_a_at) / Fold change /veh TMEM51 (11727254_a_at) / RFU PIWIL2 (11732686_x_at) / Fold change /veh PIWIL2 (11732686_x_at) / RFU ORM1 (11744905_x_at) / Fold change /veh ORM1 (11744905_x_at) / RFU CCDC152 (11743942_at) / Fold change /veh CCDC152 (11743942_at) / RFU ECM1 (11717891_a_at) / Fold change /veh ECM1 (11717891_a_at) / RFU IL23R (11748794_a_at) / Fold change /veh IL23R (11748794_a_at) / RFU TNFAIP8L3 (11732012_x_at) / Fold change /veh TNFAIP8L3 (11732012_x_at) / RFU MBOAT4 (11741988_at) / Fold change /veh MBOAT4 (11741988_at) / RFU 11764193_at / Fold change /veh 11764193_at / RFU TMEM53 (11763286_at) / Fold change /veh TMEM53 (11763286_at) / RFU MAGEB2 (11727129_at) / Fold change /veh MAGEB2 (11727129_at) / RFU TMEM200A (11744735_a_at) / Fold change /veh TMEM200A (11744735_a_at) / RFU CCDC152 (11751479_a_at) / Fold change /veh CCDC152 (11751479_a_at) / RFU FAM211A (11726209_a_at) / Fold change /veh FAM211A (11726209_a_at) / RFU RGS16 (11746705_a_at) / Fold change /veh RGS16 (11746705_a_at) / RFU VCAN (11755009_s_at) / Fold change /veh VCAN (11755009_s_at) / RFU RHOB (11743442_s_at) / Fold change /veh RHOB (11743442_s_at) / RFU RGS16 (11720943_a_at) / Fold change /veh RGS16 (11720943_a_at) / RFU RGS16 (11720944_at) / Fold change /veh RGS16 (11720944_at) / RFU, VPS4B / Fold change vs veh, VPS4B / RFU, CREB1 / Fold change vs veh, CREB1 / RFU, DNAJC13 / Fold change vs veh, DNAJC13 / RFU, GNAQ / Fold change vs veh, GNAQ / RFU, CDK5R1 / Fold change vs veh, CDK5R1 / RFU, ZRANB3 / Fold change vs veh, ZRANB3 / RFU, CUL4A / Fold change vs veh, CUL4A / RFU, CCNY / Fold change vs veh, CCNY / RFU, UFL1 / Fold change vs veh, UFL1 / RFU, COG3 / Fold change vs veh, COG3 / RFU, DIAPH2 / Fold change vs veh, DIAPH2 / RFU, SKA2 / Fold change vs veh, SKA2 / RFU, AFF3 / Fold change vs veh, AFF3 / RFU, LMF1 / Fold change vs veh, LMF1 / RFU, IPO11 / Fold change vs veh, IPO11 / RFU, DFFB / Fold change vs veh, DFFB / RFU, FOXP1 / Fold change vs veh, FOXP1 / RFU, CARD8 / Fold change vs veh, CARD8 / RFU, STRN3 / Fold change vs veh, STRN3 / RFU, ADK / Fold change vs veh, ADK / RFU, RASSF2 / Fold change vs veh, RASSF2 / RFU, WIPF1 / Fold change vs veh, WIPF1 / RFU, LARP1B / Fold change vs veh, LARP1B / RFU, RASA1 / Fold change vs veh, RASA1 / RFU, RB1 / Fold change vs veh, RB1 / RFU, PPFIA1 / Fold change vs veh, PPFIA1 / RFU, MAT2A / Fold change vs veh, MAT2A / RFU, CCT5 / Fold change vs veh, CCT5 / RFU, WDR92 / Fold change vs veh, WDR92 / RFU, CUX1 / Fold change vs veh, CUX1 / RFU, TTC7A / Fold change vs veh, TTC7A / RFU, TMEM135 / Fold change vs veh, TMEM135 / RFU, DEPTOR / Fold change vs veh, DEPTOR / RFU, CPM / Fold change vs veh, CPM / RFU, DNAJB6 / Fold change vs veh, DNAJB6 / RFU, CACNA2D3 / Fold change vs veh, CACNA2D3 / RFU, DTX4 / Fold change vs veh, DTX4 / RFU, TFCP2 / Fold change vs veh, TFCP2 / RFU, GMCL1 /// GMCL1P1 / Fold change vs veh, GMCL1 /// GMCL1P1 / RFU, AEBP2 / Fold change vs veh, AEBP2 / RFU, SNHG1 /// SNORD22 /// SNORD25 /// SNORD26 /// SNORD27 /// SNORD28 /// SNORD29 /// SNORD31 / Fold change vs veh, SNHG1 /// SNORD22 /// SNORD25 /// SNORD26 /// SNORD27 /// SNORD28 /// SNORD29 /// SNORD31 / Fold change (Aza/veh), C12orf56 (ProbeSet 11735607_a_at) / Fold change (ACY-1035/veh), C12orf56 (ProbeSet 11735607_a_at) / Fold change (Aza/veh), FGFR1OP (ProbeSet 11751329_s_at) / Fold change (ACY-1035/veh), FGFR1OP (ProbeSet 11751329_s_at) / Fold change (Aza/veh), VPS36 (ProbeSet 11739960_a_at) / Fold change (ACY-1035/veh), VPS36 (ProbeSet 11739960_a_at) / RFU SYPL1 (11715823_x_at) / Fold change /veh SYPL1 (11715823_x_at) / RFU IGFBP7 (11715501_s_at) / Fold change /veh IGFBP7 (11715501_s_at) / RFU REEP3 (11722064_at) / Fold change /veh REEP3 (11722064_at) / RFU IGLL1 (11728026_x_at) / Fold change /veh IGLL1 (11728026_x_at): dose or concentration left out as unconfirmed
Settings: MV-4-11 cells, 48 hours

SMILES: Nc1ncn([C@@H]2O[C@H](CO)[C@@H](O)[C@H]2O)c(=O)n1 [azacitidine]
- RFU KRTAP5-7 /// NADSYN1 (11734609_at): 11.87 RFU
